Activity calls are given as the source filed them. No cut-off for these calls is given here.
Assays:
[1] = target: 5-hydroxytryptamine receptor 1A (Homo sapiens, UniProt P08908); experiment: Binding affinity to 5-HT1A receptor (unknown origin)
Mus musculus [2] = experiment: In vivo inhibition of tankyrase-mediated Wnt gene transcription in tumor of athymic nude mouse xenografted with human DLD1 cells at 50 mg/kg, po bid for 3 days by STF assay; type: functional, organism-based; set-up: dose 50 mg/kg; settings: DLD-1
[3] = target: C-X-C chemokine receptor type 2 (Homo sapiens, UniProt P25025); experiment: Binding affinity to CXCR2 (unknown origin)
[4] = target: Alpha-1A adrenergic receptor (Homo sapiens, UniProt P35348); experiment: Binding affinity to adrenergic alpha1A receptor (unknown origin)
[5] = target: Poly [ADP-ribose] polymerase tankyrase-2 (Homo sapiens, UniProt Q9H2K2); experiment: Inhibition of recombinant TNKS2 (unknown origin) after 60 mins by spectrophotometric analysis
Mus musculus [6] = experiment: Toxicity in athymic nude mouse assessed as dehydration at 100 mg/kg, po bid for 8 days; type: organism-based; set-up: dose 100 mg/kg, route oral; settings: in vivo, 192 h
Mus musculus [7] = experiment: In vivo inhibition of tankyrase-mediated Wnt gene transcription in tumor of athymic nude mouse xenografted with human DLD1 cells at 200 mg/kg, po bid for 3 days by STF assay; type: functional, organism-based; set-up: dose 200 mg/kg; settings: DLD-1
[8] = Intrinsic clearance in rat liver microsomes; type: ADME; settings: read-out: CLH
Tankyrase 1/2 [9] = target: T1, Tankyrase 1/2 (Homo sapiens, UniProt Q9H2K2+O95271); experiment: Inhibition of tankyrase in human SW480 cells assessed as degradation of total beta-catenin after 40 to 48 hrs; type: cell-based
T1 sequence (Q9H2K2 whole entry): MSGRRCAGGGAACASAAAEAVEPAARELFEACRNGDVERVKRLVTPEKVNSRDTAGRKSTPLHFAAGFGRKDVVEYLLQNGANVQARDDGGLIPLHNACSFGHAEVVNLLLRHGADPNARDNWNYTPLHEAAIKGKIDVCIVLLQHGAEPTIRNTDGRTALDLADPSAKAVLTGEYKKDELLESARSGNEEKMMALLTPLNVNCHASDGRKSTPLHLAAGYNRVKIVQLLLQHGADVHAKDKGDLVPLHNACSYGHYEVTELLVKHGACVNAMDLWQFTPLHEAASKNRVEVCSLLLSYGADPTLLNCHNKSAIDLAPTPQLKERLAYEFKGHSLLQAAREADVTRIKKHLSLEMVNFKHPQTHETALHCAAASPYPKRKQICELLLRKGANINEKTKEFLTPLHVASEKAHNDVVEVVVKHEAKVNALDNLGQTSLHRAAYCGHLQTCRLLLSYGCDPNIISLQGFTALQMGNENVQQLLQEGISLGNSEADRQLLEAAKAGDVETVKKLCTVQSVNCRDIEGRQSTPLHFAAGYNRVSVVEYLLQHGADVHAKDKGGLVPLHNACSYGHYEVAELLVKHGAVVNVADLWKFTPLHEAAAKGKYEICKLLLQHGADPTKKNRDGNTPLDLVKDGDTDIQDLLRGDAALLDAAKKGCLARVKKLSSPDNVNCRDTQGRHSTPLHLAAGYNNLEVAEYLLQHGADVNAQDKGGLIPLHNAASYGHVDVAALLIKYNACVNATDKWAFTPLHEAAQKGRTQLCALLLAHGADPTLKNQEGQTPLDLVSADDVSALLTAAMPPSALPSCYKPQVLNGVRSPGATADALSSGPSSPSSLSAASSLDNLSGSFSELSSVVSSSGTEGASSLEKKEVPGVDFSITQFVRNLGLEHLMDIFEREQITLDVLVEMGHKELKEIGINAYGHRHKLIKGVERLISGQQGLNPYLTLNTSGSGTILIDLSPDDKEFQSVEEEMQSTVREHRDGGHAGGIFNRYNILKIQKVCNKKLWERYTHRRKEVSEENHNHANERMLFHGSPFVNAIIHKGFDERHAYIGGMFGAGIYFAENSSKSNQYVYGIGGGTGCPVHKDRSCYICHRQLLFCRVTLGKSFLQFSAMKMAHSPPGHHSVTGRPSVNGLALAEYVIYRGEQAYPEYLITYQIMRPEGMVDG
T1 sequence (O95271 whole entry): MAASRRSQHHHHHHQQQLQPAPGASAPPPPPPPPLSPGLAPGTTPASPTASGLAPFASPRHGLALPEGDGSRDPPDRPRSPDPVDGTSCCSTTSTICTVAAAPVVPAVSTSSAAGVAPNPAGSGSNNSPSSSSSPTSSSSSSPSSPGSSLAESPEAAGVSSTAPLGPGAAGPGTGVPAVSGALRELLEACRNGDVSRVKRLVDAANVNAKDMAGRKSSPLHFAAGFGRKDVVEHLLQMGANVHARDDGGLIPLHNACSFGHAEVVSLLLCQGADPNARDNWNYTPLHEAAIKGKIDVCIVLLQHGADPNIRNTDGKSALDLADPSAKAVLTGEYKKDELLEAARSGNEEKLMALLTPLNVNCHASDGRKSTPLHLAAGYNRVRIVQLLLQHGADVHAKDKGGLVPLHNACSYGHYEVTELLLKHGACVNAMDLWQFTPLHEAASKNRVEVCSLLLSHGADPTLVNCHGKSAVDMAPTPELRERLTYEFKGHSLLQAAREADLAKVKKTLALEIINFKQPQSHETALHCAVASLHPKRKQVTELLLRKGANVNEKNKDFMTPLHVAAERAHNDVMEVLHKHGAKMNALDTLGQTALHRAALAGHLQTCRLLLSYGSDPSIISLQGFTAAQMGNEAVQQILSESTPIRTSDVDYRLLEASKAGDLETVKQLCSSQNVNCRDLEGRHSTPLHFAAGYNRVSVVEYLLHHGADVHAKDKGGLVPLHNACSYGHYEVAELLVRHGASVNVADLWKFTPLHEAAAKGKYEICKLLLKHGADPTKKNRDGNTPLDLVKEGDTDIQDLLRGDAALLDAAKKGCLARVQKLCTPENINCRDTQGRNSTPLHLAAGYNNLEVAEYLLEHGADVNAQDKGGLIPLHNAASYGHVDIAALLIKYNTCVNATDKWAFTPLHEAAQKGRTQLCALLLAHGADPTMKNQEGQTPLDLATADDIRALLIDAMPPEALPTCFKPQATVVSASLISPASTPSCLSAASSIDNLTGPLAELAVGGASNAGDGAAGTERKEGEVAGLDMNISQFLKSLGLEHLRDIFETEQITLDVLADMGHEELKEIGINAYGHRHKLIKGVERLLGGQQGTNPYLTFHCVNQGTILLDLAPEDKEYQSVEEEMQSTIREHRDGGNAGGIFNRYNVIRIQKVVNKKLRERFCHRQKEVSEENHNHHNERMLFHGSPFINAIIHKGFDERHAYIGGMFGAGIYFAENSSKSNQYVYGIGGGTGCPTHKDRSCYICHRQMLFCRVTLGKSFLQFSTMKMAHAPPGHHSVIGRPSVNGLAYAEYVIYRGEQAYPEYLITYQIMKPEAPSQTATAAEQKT

Tankyrase 1/2 [10] = target: T1, Tankyrase 1/2; experiment: Inhibition of tankyrase in human SW480 cells assessed as axin2 accumulation after 24 hrs by Hoechst dye-based assay; type: cell-based
[11] = Intrinsic clearance in human liver microsomes; type: ADME; settings: read-out: CLH
Tankyrase 1/2 [12] = target: T1, Tankyrase 1/2; experiment: Inhibition of tankyrase in human DLD1 cells assessed as inhibition of Wnt gene transcription after 40 to 48 hrs by STF assay; type: cell-based; settings: dld-1

Alpha-1A adrenergic receptor, sequence (P35348 whole entry): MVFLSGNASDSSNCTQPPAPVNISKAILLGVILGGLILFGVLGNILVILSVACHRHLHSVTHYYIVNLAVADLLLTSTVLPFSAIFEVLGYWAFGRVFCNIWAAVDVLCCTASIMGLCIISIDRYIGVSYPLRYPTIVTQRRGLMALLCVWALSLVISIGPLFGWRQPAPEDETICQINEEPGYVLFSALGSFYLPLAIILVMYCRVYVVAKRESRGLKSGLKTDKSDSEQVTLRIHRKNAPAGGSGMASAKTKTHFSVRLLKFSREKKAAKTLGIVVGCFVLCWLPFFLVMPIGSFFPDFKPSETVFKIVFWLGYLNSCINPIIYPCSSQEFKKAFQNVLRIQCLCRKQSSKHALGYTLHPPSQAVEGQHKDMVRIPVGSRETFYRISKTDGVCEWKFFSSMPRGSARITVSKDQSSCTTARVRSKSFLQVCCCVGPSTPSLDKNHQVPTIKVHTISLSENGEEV
C-X-C chemokine receptor type 2, sequence (P25025 whole entry): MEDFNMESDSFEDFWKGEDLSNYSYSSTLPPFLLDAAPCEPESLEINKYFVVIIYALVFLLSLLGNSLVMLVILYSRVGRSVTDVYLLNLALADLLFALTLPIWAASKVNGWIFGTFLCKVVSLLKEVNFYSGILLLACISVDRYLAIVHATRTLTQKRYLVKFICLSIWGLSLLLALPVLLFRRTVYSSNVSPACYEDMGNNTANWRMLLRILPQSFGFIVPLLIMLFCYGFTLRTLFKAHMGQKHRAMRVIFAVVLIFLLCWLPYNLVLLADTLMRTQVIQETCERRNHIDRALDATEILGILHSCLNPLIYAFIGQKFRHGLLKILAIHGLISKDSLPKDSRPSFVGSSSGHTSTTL
5-hydroxytryptamine receptor 1A, sequence (P08908 whole entry): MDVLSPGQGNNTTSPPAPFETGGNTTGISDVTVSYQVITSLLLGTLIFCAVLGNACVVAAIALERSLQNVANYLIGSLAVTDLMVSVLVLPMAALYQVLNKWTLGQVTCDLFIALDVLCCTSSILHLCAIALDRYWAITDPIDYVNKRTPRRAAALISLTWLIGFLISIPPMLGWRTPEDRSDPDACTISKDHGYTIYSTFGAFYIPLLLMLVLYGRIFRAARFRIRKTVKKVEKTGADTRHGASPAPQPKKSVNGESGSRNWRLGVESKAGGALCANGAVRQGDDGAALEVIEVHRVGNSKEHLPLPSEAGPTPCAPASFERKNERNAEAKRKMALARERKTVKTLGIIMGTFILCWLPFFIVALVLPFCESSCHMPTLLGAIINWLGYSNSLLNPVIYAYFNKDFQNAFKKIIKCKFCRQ

Row | microsomal CLint [8] | IC50 (Tankyrase 1/2 [9]) | EC50 (Tankyrase 1/2 [10]) | microsomal CLint [11] | IC50 (Tankyrase 1/2 [12]) | SMILES | IC50 [1] | inhibition (Mus musculus [2]) | IC50 [3] | IC50 [4] | IC50 [5] | Activity (Mus musculus [6]) | inhibition (Mus musculus [7])
1 |  |  |  |  |  | CC1(C)OC(=O)N([C@H]2CC[C@H](c3cnc(N)c(-c4ncccn4)c3)CC2)[C@H]1c1ccccc1 | > 48500 nM | Active | > 48500 nM | > 48500 nM | 2 nM | Toxic | 
2 | 48 µL/min/mg | 233 nM | 709 nM | 33 µL/min/mg | 96 nM | CC1(C)OC(=O)N(c2ccc(-c3cnc(N)c(-c4ncccn4)c3)cc2)[C@H]1c1ccccc1 |  |  |  |  |  |  | Active
